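Assay format: 96-well plates, 48-hour exposure. GI50 is the concentration that inhibits growth by half.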 Activity calls are given as the source filed them. Rule as the data show it: active = GI50 up to about 1.1 µM and inactive = higher.
Key:
Assay in all cases: DTP human tumour cell line panel, 48 h
MDA-MB-231 = system: MDA-MB-231
A498 = system: A498
MOLT-4 = system: MOLT-4
HCC 2998 = system: HCC 2998
UACC-257 = system: UACC-257
HCT-15 = system: HCT-15
SF-268 = system: SF-268
U-251 = system: U-251
HOP-62 = system: HOP-62
CAKI-1 = system: CAKI-1
DU-145 = system: DU-145
A549 = system: A549
KM12 = system: KM12
RPMI-8226 = system: RPMI-8226
MDA-N = system: MDA-N
IGROV-1 = system: IGROV-1
SF-539 = system: SF-539
RXF 393 = system: RXF 393
LOX IMVI = system: LOX IMVI
OVCAR-4 = system: OVCAR-4

SMILES	GI50 (MDA-MB-231)	GI50 (A498)	GI50 (MOLT-4)	GI50 (HCC 2998)	GI50 (UACC-257)	GI50 (HCT-15)	GI50 (SF-268)	GI50 (U-251)	GI50 (HOP-62)	GI50 (CAKI-1)	GI50 (DU-145)	GI50 (A549)	GI50 (KM12)	GI50 (RPMI-8226)	GI50 (MDA-N)	GI50 (IGROV-1)	GI50 (SF-539)	GI50 (RXF 393)	GI50 (LOX IMVI)	GI50 (OVCAR-4)
O=C1OC(C2Cc3ccc4c(c3C2=O)CCC4)c2ccccc21 (centres undefined)	> 100 µM (inactive)	60.5 µM (inactive)	30.9 µM (inactive)	37.4 µM (inactive)	46.8 µM (inactive)	39.1 µM	42.9 µM (inactive)	38.8 µM (inactive)	> 100 µM (inactive)	> 100 µM (inactive)	91.8 µM (inactive)	50 µM (inactive)	29.7 µM (inactive)	25.3 µM (inactive)	40.3 µM (inactive)	82.4 µM (inactive)	28.2 µM (inactive)	37.7 µM (inactive)	34.9 µM (inactive)	38.1 µM (inactive)
CCOC(=O)C(NS(=O)(=O)c1ccccc1)(C(F)(F)F)P(=O)(OCC(C)C)OCC(C)C (centres undefined)	> 100 µM (inactive)	> 100 µM (inactive)	> 100 µM (inactive)	> 100 µM (inactive)	> 100 µM (inactive)	> 100 µM	> 100 µM (inactive)	> 100 µM (inactive)	> 100 µM (inactive)	> 100 µM (inactive)	> 100 µM (inactive)	> 100 µM (inactive)	> 100 µM (inactive)	> 100 µM (inactive)	> 100 µM (inactive)	> 100 µM (inactive)	> 100 µM (inactive)	> 100 µM (inactive)	> 100 µM (inactive)	> 100 µM (inactive)
O=C1Cc2c(-c3ccccc3)cc(-c3ccc(Cl)cc3)nc2-c2ccccc2N1	4.13 µM (inactive)	1.75 µM (inactive)	7.8 µM (inactive)	6.07 µM (inactive)	14.2 µM (inactive)	6.68 µM	4.85 µM (inactive)	1.72 µM (inactive)	3.66 µM (inactive)	3.91 µM (inactive)	16.7 µM (inactive)	9.35 µM (inactive)	7.89 µM (inactive)	8.47 µM (inactive)	6.9 µM (inactive)	4.62 µM (inactive)	5.83 µM (inactive)	3.77 µM (inactive)	6.22 µM (inactive)	1.7 µM (inactive)
c1cc(C[S+]2CCCC2)oc1C[S+]1CCCC1	> 100 µM (inactive)	53.6 µM (inactive)	> 100 µM (inactive)	> 100 µM (inactive)	> 100 µM (inactive)	> 100 µM	> 100 µM (inactive)	> 100 µM (inactive)	> 100 µM (inactive)	> 100 µM (inactive)	> 100 µM (inactive)	> 100 µM (inactive)	–	–	> 100 µM (inactive)	> 100 µM (inactive)	> 100 µM (inactive)	> 100 µM (inactive)	> 100 µM (inactive)	> 100 µM (inactive)
O=C(NCCCCCCNC(=O)n1cc(F)c(=O)[nH]c1=O)NCCCOCCOCCOCCOCCOCCOCCOCCOCCOCCOCCOCCOCCOCCOCCOCCOCCOCCOCCOCCOCCOCCCNC(=O)C(O)C(O)C(O)C(O)CO (centres undefined)	> 100 µM (inactive)	6.95 µM (inactive)	33.9 µM (inactive)	5.66 µM (inactive)	> 90.2 µM (inactive)	21 µM	55.5 µM (inactive)	70.6 µM (inactive)	33.5 µM (inactive)	22.5 µM (inactive)	25.4 µM (inactive)	6.52 µM (inactive)	31.7 µM (inactive)	5.85 µM (inactive)	33.9 µM (inactive)	60.1 µM (inactive)	1.81 µM (inactive)	43.2 µM (inactive)	16.3 µM (inactive)	> 100 µM (inactive)
CO[C@H]1[C@@H](O)[C@@H](O)O[C@@H](O[C@H]2CC[C@@]3(C)[C@H](CC[C@@H]4[C@@H]3[C@H](O)C[C@]3(C)[C@@H](C5=CC(=O)OC5)CC[C@]43O)C2)[C@@H]1O	0.649 µM (active)	0.184 µM (active)	0.0304 µM (active)	1.67 µM (inactive)	0.382 µM (active)	0.281 µM	0.11 µM (active)	0.305 µM (active)	0.124 µM (active)	0.111 µM (active)	0.0946 µM (active)	0.0491 µM (active)	0.698 µM (active)	0.198 µM (active)	0.243 µM (active)	0.301 µM (active)	0.08 µM (active)	0.056 µM (active)	0.193 µM (active)	0.192 µM (active)
CC(C)C(=O)OCC1CCCN2CCCCC12 (centres undefined)	45.4 µM (inactive)	> 100 µM (inactive)	50.8 µM (inactive)	28.8 µM (inactive)	> 100 µM (inactive)	53 µM	> 100 µM (inactive)	> 100 µM (inactive)	> 100 µM (inactive)	> 100 µM (inactive)	> 100 µM (inactive)	74 µM (inactive)	> 100 µM (inactive)	95.3 µM (inactive)	> 100 µM (inactive)	–	> 100 µM (inactive)	> 100 µM (inactive)	82 µM (inactive)	> 100 µM (inactive)
c1ccc(Nc2nn3c(CCCCCCCCc4nnc5sc(Nc6ccccc6)nn45)nnc3s2)cc1	28.7 µM (inactive)	36.2 µM (inactive)	14.7 µM (inactive)	60.8 µM (inactive)	34.2 µM (inactive)	36.5 µM	43 µM (inactive)	35.2 µM (inactive)	38.5 µM (inactive)	29 µM (inactive)	47.8 µM (inactive)	21.6 µM (inactive)	32.2 µM (inactive)	22.3 µM (inactive)	18.4 µM (inactive)	–	56.5 µM (inactive)	41.6 µM (inactive)	22.1 µM (inactive)	21.8 µM (inactive)
COc1cc(S(=O)(=O)Nc2nc(-c3ccc(N4C(=O)C(CC(=O)O)SC4c4ccccc4O)cc3)cs2)ccc1Cl (centres undefined)	> 100 µM (inactive)	29.1 µM (inactive)	49.5 µM (inactive)	9.93 µM (inactive)	88.7 µM (inactive)	47.5 µM	> 100 µM (inactive)	45.8 µM (inactive)	90.4 µM (inactive)	> 100 µM (inactive)	> 100 µM (inactive)	32 µM (inactive)	78.7 µM (inactive)	–	> 100 µM (inactive)	34.9 µM (inactive)	> 100 µM (inactive)	61.2 µM (inactive)	> 100 µM (inactive)	34.3 µM (inactive)
C=CCC1CC(n2cc(C)c(=O)[nH]c2=O)OC1CO[Si](C)(C)C(C)(C)C (centres undefined)	13.7 µM (inactive)	19.1 µM (inactive)	–	17.9 µM (inactive)	17.2 µM (inactive)	15.3 µM	15.6 µM (inactive)	13.6 µM (inactive)	18.3 µM (inactive)	13.7 µM (inactive)	13.5 µM (inactive)	12.3 µM (inactive)	12 µM (inactive)	11.9 µM (inactive)	14 µM (inactive)	11.2 µM (inactive)	13.8 µM (inactive)	4.06 µM (inactive)	13 µM (inactive)	12.1 µM (inactive)
